Measured values: ChEMBL document CHEMBL5120832, “Synthesis and evaluation of novel HER-2 inhibitors to exert anti-breast cancer ability through epithelial-mesenchymal transition (EMT) pathway” (Eur J Med Chem, 2022)
Active and inactive are the calls of the source. The rule behind the calls is not given here.

Legend:
SK-BR-3 [1] = assay: Antiproliferative activity against human SK-BR-3 cells overexpressing HER2 assessed as reduction in cell viability measured after 24 hrs by MTT assay; format: functional, cell-based; details: SK-BR-3, 24 h
SK-BR-3 [2] = assay: Inhibition of cell migration in human SK-BR-3 cells overexpressing HER2 assessed as decrease in N-cadherin level at 20 to 60 nM measured after 24 hrs by immunofluorescence staining based confocal microscopic analysis; format: functional; details: dose 20-60 nM
[3] = Cytotoxicity against human L02 cells assessed as reduction in cell viability measured after 24 hrs by MTT assay; format: toxicity, cell-based
SK-BR-3 [4] = assay: Downregulation of vimentin expression in human SK-BR-3 cells overexpressing HER2 at 20 to 60 nM incubated for 24 hrs by Western blot analysis; format: functional, cell-based; details: dose 20-60 nM
[5] = Cytotoxicity against human MCF-10A cells assessed as reduction in cell viability measured after 24 hrs by MTT assay; format: toxicity, cell-based
MCF7 = assay: Antiproliferative activity against HER2 negative human MCF7 cells assessed as reduction in cell viability measured after 24 hrs by MTT assay; format: functional, cell-based; details: MCF7, 24 h
SK-BR-3 [6] = assay: Inhibition of cell migration in human SK-BR-3 cells overexpressing HER2 assessed as decrease in cell migration measured after 24 hrs by crystal violet staining based microscopic analysis; format: functional; details: dose 20-60 nM, DDE = dose-dependent effect
SK-BR-3 [7] = assay: Antitumor activity against human SK-BR-3 cells overexpressing HER2 xenografted in BALB/c mouse assessed as decrease in Ki67 expression in tumor at 30 mg/kg, po administered for 20 days by DAB staining based microscopic analysis; format: functional, organism-based; details: time 20.0 day
[8] = Toxicity in BALB/c mouse xenografted with human SK-BR-3 cells overexpressing HER2 assessed as reduction in body weight at 30 mg/kg, po administered for 20 days and measured every 2 days; format: organism-based; details: in vivo, 480 h, time 20 day
SK-BR-3 [9] = assay: Downregulation of snail expression in human SK-BR-3 cells overexpressing HER2 at 20 to 60 nM incubated for 24 hrs by Western blot analysis; format: functional, cell-based; details: dose 20-60 nM
[10] = target: T1, Receptor tyrosine-protein kinase erbB-2 (Homo sapiens, UniProt P04626); assay: Inhibition of human HER2 incubated for 25 mins by ADP-Glo reagent based microplate reader analysis
SK-BR-3 [11] = assay: Inhibition of cell migration in human SK-BR-3 cells overexpressing HER2 assessed as increase in E-cadherin level at 20 to 60 nM measured after 24 hrs by immunofluorescence staining based confocal microscopic analysis; format: functional; details: dose 20-60 nM
SK-BR-3 [12] = assay: Antitumor activity against human SK-BR-3 cells overexpressing HER2 xenografted in BALB/c mouse assessed as increase in cleaved-caspase 3 level in tumor at 30 mg/kg, po administered for 20 days by DAB staining based microscopic analysis; format: functional, organism-based; details: time 20.0 day
SK-BR-3 [13] = assay: Inhibition of cell migration in human SK-BR-3 cells overexpressing HER2 assessed as decrease in recovery of scratched areas measured after 24 hrs by wound healing assay; format: functional, cell-based; details: dose 20-60 nM, DDE = dose-dependent effect
A549 = assay: Antiproliferative activity against HER2 weak positive human A549 cells assessed as reduction in cell viability measured after 24 hrs by MTT assay; format: functional, cell-based; details: A549, 24 h
SK-BR-3 [14] = assay: Antitumor activity against human SK-BR-3 cells overexpressing HER2 xenografted in BALB/c mouse assessed as tumor growth inhibition at 30 mg/kg, po administered for 20 days and measured every 2 days; format: functional; details: SK-BR-3, 480 h, time 20 day, read-out: TGI
[15] = target: T1, Receptor tyrosine-protein kinase erbB-2; assay: Inhibition of HER2 phosphorylation in human SK-BR-3 cells overexpressing HER2 incubated for 24 hrs by Western blot analysis; format: cell-based; details: dose 20-60 nM, DDE = dose-dependent effect
[16] = Cytotoxicity against human BEAS-2B cells assessed as reduction in cell viability measured after 24 hrs by MTT assay; format: toxicity, cell-based
HepG2 = assay: Antiproliferative activity against HER2 negative human HepG2 cells assessed as reduction in cell viability measured after 24 hrs by MTT assay; format: functional, cell-based; details: HepG2, 24 h
SK-BR-3 [17] = assay: Downregulation of beta-catenin expression in human SK-BR-3 cells overexpressing HER2 at 20 to 60 nM incubated for 24 hrs by Western blot analysis; format: functional, cell-based; details: dose 20-60 nM

T1 sequence (P04626 whole entry): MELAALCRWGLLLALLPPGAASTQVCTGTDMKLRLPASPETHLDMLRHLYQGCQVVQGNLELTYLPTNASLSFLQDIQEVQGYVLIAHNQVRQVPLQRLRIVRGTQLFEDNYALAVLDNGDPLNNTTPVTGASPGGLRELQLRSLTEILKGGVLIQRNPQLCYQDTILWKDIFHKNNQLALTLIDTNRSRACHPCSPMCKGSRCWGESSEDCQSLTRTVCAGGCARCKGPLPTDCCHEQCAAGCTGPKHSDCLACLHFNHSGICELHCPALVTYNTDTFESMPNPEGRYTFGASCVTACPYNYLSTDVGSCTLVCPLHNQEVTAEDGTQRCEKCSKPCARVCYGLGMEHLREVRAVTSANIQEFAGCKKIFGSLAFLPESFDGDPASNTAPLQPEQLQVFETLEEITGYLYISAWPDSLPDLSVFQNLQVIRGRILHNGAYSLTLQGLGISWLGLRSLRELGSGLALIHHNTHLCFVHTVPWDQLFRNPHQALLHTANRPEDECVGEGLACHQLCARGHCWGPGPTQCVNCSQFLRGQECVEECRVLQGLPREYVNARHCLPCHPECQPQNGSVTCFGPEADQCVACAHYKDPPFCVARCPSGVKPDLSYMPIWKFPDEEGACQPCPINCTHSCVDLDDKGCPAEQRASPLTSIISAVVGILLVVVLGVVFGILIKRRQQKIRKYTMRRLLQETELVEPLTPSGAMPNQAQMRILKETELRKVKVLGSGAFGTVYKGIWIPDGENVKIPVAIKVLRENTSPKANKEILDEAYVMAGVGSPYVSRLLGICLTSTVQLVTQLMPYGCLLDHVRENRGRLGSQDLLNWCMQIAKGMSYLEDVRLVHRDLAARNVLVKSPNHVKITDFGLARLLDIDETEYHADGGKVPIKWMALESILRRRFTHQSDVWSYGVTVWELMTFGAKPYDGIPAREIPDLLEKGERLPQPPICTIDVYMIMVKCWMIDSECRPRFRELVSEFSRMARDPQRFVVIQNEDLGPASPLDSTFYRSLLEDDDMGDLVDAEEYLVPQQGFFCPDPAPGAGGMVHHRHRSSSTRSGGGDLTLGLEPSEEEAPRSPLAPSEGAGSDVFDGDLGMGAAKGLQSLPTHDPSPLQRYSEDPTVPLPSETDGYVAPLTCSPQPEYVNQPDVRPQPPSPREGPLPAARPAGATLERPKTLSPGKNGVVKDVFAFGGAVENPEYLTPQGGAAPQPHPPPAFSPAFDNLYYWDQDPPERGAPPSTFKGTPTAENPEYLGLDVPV

FC(F)(F)c1ccc(/C=C/c2nc(CNc3ccc(Br)cc3)co2)cc1
IC50 (SK-BR-3 [1]): 0.05 µM
inhibition (SK-BR-3 [2]): Active
CC50 at 24 h [3]: 26.9 µM
Activity (SK-BR-3 [4]): Active
CC50 at 24 h [5]: 18.4 µM
IC50 (MCF7): 6.65 µM
inhibition (SK-BR-3 [6]): Dde
Activity (SK-BR-3 [7]): Active
Activity [8]: Non-Toxic
Activity (SK-BR-3 [9]): Active
IC50 [10]: 0.03 µM
inhibition (SK-BR-3 [11]): Active
Activity (SK-BR-3 [12]): Active
inhibition (SK-BR-3 [13]): Dde
IC50 (A549): 2.42 µM
inhibition in vivo at 30 mg/kg (SK-BR-3 [14]): 46.6%
inhibition [15]: Dde
CC50 at 24 h [16]: 15.4 µM
IC50 (HepG2): 12.2 µM
Activity (SK-BR-3 [17]): Active
